Experiments:
[1] = Plasma noribogaine glucuronide pharmacokinetics in healthy volunteers (Example 7); type: in vivo; conditions: human plasma; for AUC0-216 / AUC0-∞ / Cmax / Tmax / t1/2: mean
Sprague-Dawley rats = assay: Fourteen day repeat dose toxicity in rats; type: in vivo, rat
Description: This study was conducted to evaluate the toxicity profile of noribogaine-HCl following oral (gavage) administration to the rat for 14 days following Table 2 below:
Male and female Sprague-Dawley rats, 10/sex/group, were administered 0, 25, 50 or 100 mg/kg noribogaine HCl daily by single oral gavage for 14 days. An additional 5 rats/sex/group in the 0 (control) and 100 mg/kg groups were retained for a 28 day recovery period during which no drug was administered. Six rats/sex/group (3 rats/sex controls) were similarly dosed and sampled on study days 1 and 14 for analysis of noribogaine-HCl concentrations in the blood.

dogs = assay: Fourteen day repeat dose toxicity in dogs; type: in vivo, dog
Description: The objective of this study was to determine the toxicity profile of noribogaine HCl given following oral (gavage) administration to dogs for 14 days according to the following Table 3 below:
Noribogaine HCl was administered to groups of 4 male and 4 female dogs by single oral gavage daily for 14 days at doses of 0, 0.5, 1.0 and 5.0 mg/kg/day. An additional group of 4 male and 4 female dogs received either the vehicle control or 5.0 mg/kg/day for 14 days and were held for an additional 28 days after cessation of dosing to assess recovery from any potential drug-induced changes. The study was conducted under GLP guidelines and included comprehensive examinations of clinical signs, body weight, clinical pathology parameters, ophthalmologic examinations. ECG recordings and analyses of plasma for bioanalytical measurement of drug levels at appropriate intervals during the study. At the termination of the dosing phase and at the termination of the recovery phase, all dogs were subjected to a complete post-mortem examination including gross examination of major organs and histologic examination of an extensive list of tissues. Additional sections of brain were obtained from cerebrum, cerebellus, brain stem and spinal cord and examined histologically to evaluate potential effects on brain histopathology. In addition, these sections were examined with immunohistochemical stains for GFAP for evidence of gliosis and Calbindin for a more comprehensive examination of cerebellar Purkinje cells.

[2] = Human pharmacokinetic study, single oral dose, serum levels (Example 6); type: in vivo; conditions: fasting healthy volunteers, single oral tablet 3, 10, 30 or 60 mg
Description: In double blind studies, fasting healthy volunteers (6 per cohort) were treated once orally with a tablet of noribogaine HCl. In escalating cohorts, the volunteers received 3 mg, 10 mg, 30 mg or 60 mg noribogaine.

Sprague-Dawley rat = assay: Single dose toxicity in rats; type: in vivo; conditions: male rats
Description: The objective of this study was to determine the toxicity and toxicokinetic profile of noribogaine HCl following a single oral (gavage) administration in the Sprague-Dawley rat. A single dose of 100, 300 and 800 mg/kg (achieved with doses of 400 mg/kg 3 h+/−30 min apart because of the limitations of maximum dose formulation concentration). Five male rats/group were used. […] Hypoactivity, vocalization, chewing movements, changes in respiration/posture, salivation, stimuli sensitivity, tremors, twitches and penile erection occurred prior to death. […] The NOAEL was determined to be 100 mg/kg.

[3] = after single oral 30 mg noribogaine (n = 6)
[4] = after single oral 60 mg noribogaine (n = 6)

SMILES: CC[C@H]1C[C@@H]2C[C@H]3c4[nH]c5ccc(OC6OC(C(=O)O)C(O)C(O)C6O)cc5c4CCN(C2)[C@@H]13 (some centres unmarked) [Noribogaine glucuronide, noribogaine glucuronide]
- Mean half-life ([1]; 30 mg and 60 mg dose groups): 21 to 23 h
- Time of peak concentrations after noribogaine dosing ([1]; 30 mg and 60 mg dose groups): 3 to 4 h
- Time by which detected in all subjects ([1]; 30 mg and 60 mg noribogaine dose groups): ≤ 0.75 h
- AUC0-216 [1, 3]: 0.0257 µg·h/mL
- AUC0-∞ [1, 3]: 0.0258 µg·h/mL
- Cmax [1, 3]: 1.8 ng/mL
- Tmax [1, 3]: 3.0 h
- t1/2 [1, 3]: 20.6 h
- AUC0-216 [1, 4]: 0.065 µg·h/mL
- AUC0-∞ [1, 4]: 0.0671 µg·h/mL
- Cmax [1, 4]: 4.1 ng/mL
- Tmax [1, 4]: 3.8 h
- t1/2 [1, 4]: 23.1 h
- Proportion of noribogaine glucuronide Cmax and AUC relative to noribogaine ([1]; both dose groups (30 mg, 60 mg)): 3-4%

SMILES: CC[C@@H]1C[C@H]2CC3c4[nH]c5ccc(O)cc5c4CCN(C2)C31.Cl [noribogaine HCl]
- Effects on mortality, clinical signs, ophthalmoscopy, hematology, coagulation parameters, clinical chemistry, urinalysis, gross necropsy or histopathology (Sprague-Dawley rats; rats, 25, 50 or 100 mg/kg daily oral gavage for 14 days): no test article-related effects
- Brain sections stained for GFAP or Calbindin (Sprague-Dawley rats; rats, 14 days oral gavage): No treatment-related differences in the brain
- NOAEL (Sprague-Dawley rats; rats, 14 days oral gavage, highest dose tested): 100 mg/kg
- Body weight change (Sprague-Dawley rats; rats, females, high dose 100 mg/kg, 14 days): −2.6%
- Food consumption change (Sprague-Dawley rats; rats, males and females, high dose 100 mg/kg, 14 days): −4.7%
- Body weight change (Sprague-Dawley rats; rats, males, high dose 100 mg/kg, 14 days): −5.5%
- Liver weight (Sprague-Dawley rats; rats, mid- and high dose groups (50, 100 mg/kg), 14 days, not correlated with histopathologic changes, considered incidental): Minor increases in liver weight
- Lacrimal gland change in recovery group (dogs; dogs, 5 mg/kg/day 14 days, then 28 days off drug): clear evidence of regeneration
- Lacrimal gland changes (only target tissue) (dogs; dogs, 5 mg/kg/day, 14 days): slight to moderate atrophy and degeneration of the acinar cells
- Adverse effect in clinical observations, body weights, clinical pathological parameters, ophthalmologic examinations, ECG recordings, or gross lesions at necropsy (dogs; dogs, 0.5, 1.0 and 5.0 mg/kg/day oral gavage 14 days, dosing or recovery phase): No evidence of adverse effect
- Drug-induced effect in any other tissue including brain (histopathology, immunohistochemistry) (dogs; dogs, 14 days oral gavage): No evidence of drug-induced effect
- NOAEL (dogs; dogs, 14 days oral gavage, based on lacrimal gland changes at 5 mg/kg/day): 1 mg/kg/day
- Adverse effects [2]: no clinically relevant adverse effects were observed
- Linearity of pharmacokinetic parameters [2]: All parameters were linear
- NOAEL (Sprague-Dawley rat; single oral gavage): 100 mg/kg
- Treatment related signs (Sprague-Dawley rat; single oral gavage 100 mg/kg): did not show any treatment related signs
- Rats with hypoactivity, vocalization, salivation, stimuli sensitivity, loss of limb function and lying on the cage floor persisting until Day 2 (Sprague-Dawley rat; single oral gavage 300 mg/kg): 3/5
- Mortality (Sprague-Dawley rat; single oral gavage 800 mg/kg (2 x 400 mg/kg 3 h apart), approximately 2-3 h after second dose): Mortality occurred in all male rats
